The values that follow come from US20060252740A1 (priority 2005, published 2006).

For data set [1], the system named is patients with advanced solid tumors. As to conditions: 80 mg/m^2 dose level, cited from earlier work.
A further data set can be described thus: clinical. How it is done:
PK assessments included the following tests. […] The total number of PK samples collected was approximately 115 mL of whole blood (7-8 tablespoons). If a patient experienced a potentially drug-related SAE, additional PK samples were collected. Blood was drawn from the contralateral arm to the infusion site using an indwelling catheter to avoid multiple needle sticks. […] The blood tube was inverted several times and the tube placed in wet ice immediately pending separation of the plasma. If a catheter was used for blood collection, the fluid in the catheter was completely withdrawn prior to each sample collection and discarded. Plasma samples were kept on wet ice during collection and centrifugation. Plasma samples were split into two cryovials prior to freezing at −70° C.

Data set [2] deals with patients with advanced solid tumors. As to conditions: population PK analysis; cited from earlier work.
Data set [3] deals with adult patients with solid tumors. The following applies: patients treated at 56 mg/m^2; cited from earlier work.
Data set [4] in a line: Cellular assays (potency of 17-AAG versus 17-AG). Type of data set: cell-based.
A further data set has as its system MM cells. As to conditions: cited from earlier work.
Setting [5] is: 17-AG metabolite, Cohorts 3 & 4, 17-AAG 150 mg/m^2, Max.
Setting [6] is: 17-AG metabolite, Cohorts 3 & 4, 17-AAG 150 mg/m^2, Median.
Setting [7] is: 17-AG metabolite, Cohorts 3 & 4, 17-AAG 150 mg/m^2, Min.

Structures are written as SMILES.

Turning to `CO[C@H]1/C=C\C=C(/C)C(=O)NC2=CC(=O)C(N)=C(C[C@@H](C)C[C@H](OC)[C@H](O)[C@@H](C)/C=C(\C)[C@@H]1OC(N)=O)C2=O` [17-AG, 17-aminogeldanamycin], the t1/2 in data set [1] was 1.75 h. Also, the highest concentration (Cmax) in data set [1] (read-out: plasma Cmax) was 0.607 µM. Also, in “clinical” (setting [5]), the AUCext turned out to be 16.0%, the AUCextra is reported as 2,604 ng/mL * h, the AUCtotal is on record as 16,323 ng/mL * h and the Lz came to 0.1512. In “clinical” (setting [6]), the AUCext is on record as 5.0%, the AUCtotal is recorded as 3,253 ng/mL * h and the Lz is 0.1200. Besides, in the data set “clinical” (setting [7]), the AUCext is on record as 2.2%, the AUCtotal was determined as 980 ng·h/mL and the Lz was found to be 0.0765. Besides, the “average ratio of AUCtotal for the 17-AG to AUCtotal for the parent drug 17-AAG” value in the data set “clinical” (data of Tables 2 and 3, cohorts 1-4) is given as 82.5±90.5%. Besides, the AUC(0-t) in “clinical” (human, plasma, intravenous, 100 mg/m2, AUClast, 17-AG metabolite, Cohorts 1 & 2, 17-AAG 100 mg/m^2, Mean) was found to be 3.48 µg·h/mL. In addition, the half-life in the data set “clinical” (human, plasma, intravenous, Terminal elimination half-life, 17-AG metabolite, cohorts 1-4 combined) is 6.52 ± 1.74 h. The “elimination in plasma profiles” value in “clinical” (plasma profiles after 17-AAG infusion) was “much slower elimination”. Besides, the Clearance in data set [2] is recorded as 21.3 L/h. In addition, in data set [3], the Clearance was 30.8 L/h/m^2, the VZ is listed as 203 L/m^2, the “average AUC” value was 5,558 nM*h and the “average t1/2” value is 8.6 h. Also, in data set [4], the “relative potency of 17-AAG and 17-AG” value is “equipotent in cellular assays”.

On to `CC(C)C[C@H](NC(=O)[C@H](Cc1ccccc1)NC(=O)c1cnccn1)B(O)O` [bortezomib], for which, in the data set with MM cells (pre-clinical studies), the “stress response of MM cells” value was “triggers significant Hsp90 up-regulation”. The “effect on drug resistance of MM cells” value in the data set on MM cells (preclinical and clinical studies) is recorded as “can overcome resistance of MM cells to conventional or high-dose cytotoxic chemotherapy”.
